Read-outs that look alike come from different tables or passages of the source.
Legend:
Type in all cases: in vivo
Zymoseptoria tritici = assay: Leaf blotch of wheat (SEPTTR), disease control on wheat seedlings; details: for pest or weed control at 121.5 g/ha: low volume application at 121.5 g/H; for pest or weed control at 100 ppm: high volume application at 100 ppm
How it was run: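 Yuma wheat seedlings with the first leaf fully emerged were sprayed to run-off with compound in acetone plus nine volumes of water containing 110 ppm Triton X-100; track-spray tests used EC formulations with 0.1% Trycol 5941. Z. tritici inoculation came before or after treatment, followed by 100% RH dew periods and a 20 °C greenhouse. Percent control was calculated from severity versus untreated plants.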

Puccinia triticina = assay: Wheat brown rust (PUCCRT), disease control on wheat seedlings; details: for pest or weed control at 121.5 g/ha: low volume application at 121.5 g/H; for pest or weed control at 100 ppm: high volume application at 100 ppm
How it was run: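 Compounds in acetone, diluted with nine volumes of water containing 110 ppm Triton X-100, sprayed to run-off on first-leaf Yuma wheat seedlings; track-spray tests used EC formulations with 0.1% Trycol 5941. Puccinia triticina spores applied before or after treatment. Overnight dark dew room at 22° C, 100% humidity, then greenhouse at 24° C.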

Phakopsora pachyrhizi = assay: Asian soybean rust (PHAKPA), disease control on soybean seedlings; details: High volume application at 25 ppm
Protocol: Technical grades of materials were dissolved in acetone, which were then mixed with nine volumes of water containing 0.011% Tween 20. The fungicide solutions were applied onto soybean seedlings using an automated booth sprayer to run-off. All sprayed plants were allowed to air dry prior to further handling.
Soybean plants (variety Williams 82) were grown in soil-less Metro mix, with one plant per pot. Two week old seedlings were used for testing. Plants were inoculated either 3 days prior to or 1 day after fungicide treatments. Plants were incubated for 24 h in a dark dew room at 22° C. and 100% relative humidity then transferred to a growth room at 23° C. for disease to develop. Disease severity was assessed on the sprayed leaves.

[1] = 24 h, 1 Day Protectant, read-out: SEPTTR disease control, 1DP, LV activity
[2] = 72 h, 3 Day Curative, read-out: SEPTTR disease control, 3DC, LV activity
[3] = 24 h, 1 Day Protectant, read-out: PUCCRT disease control, 1DP, LV activity
[4] = 72 h, 3 Day Curative, read-out: PUCCRT disease control, 3DC, LV activity
[5] = 24 h, 1 Day Protectant, read-out: PHAKPA 1DP disease control rating
[6] = 72 h, 3 Day Curative, read-out: PHAKPA 3DC disease control rating

| Compound | pest or weed control at 121.5 g/ha (Zymoseptoria tritici; [1]) | pest or weed control at 121.5 g/ha (Zymoseptoria tritici; [2]) | pest or weed control at 121.5 g/ha (Puccinia triticina; [3]) | pest or weed control at 121.5 g/ha (Puccinia triticina; [4]) | pest or weed control at 25 ppm (Phakopsora pachyrhizi; [5]) | pest or weed control at 25 ppm (Phakopsora pachyrhizi; [6]) | pest or weed control at 121.5 g/ha (Zymoseptoria tritici; 24 h, 1 Day Protectant, wheat leaf blotch, read-out: SEPTTR 1DP disease control, LV activity) | pest or weed control at 121.5 g/ha (Zymoseptoria tritici; 72 h, 3 Day Curative, wheat leaf blotch, read-out: SEPTTR 3DC disease control, LV activity) | pest or weed control at 121.5 g/ha (Puccinia triticina; 24 h, 1 Day Protectant, wheat brown rust, read-out: PUCCRT 1DP disease control, LV activity) | pest or weed control at 121.5 g/ha (Puccinia triticina; 72 h, 3 Day Curative, wheat brown rust, read-out: PUCCRT 3DC disease control, LV activity) | pest or weed control at 100 ppm (Zymoseptoria tritici; 24 h, 1 Day Protectant, read-out: SEPTTR disease control, 1DP, HV activity) | pest or weed control at 100 ppm (Zymoseptoria tritici; 72 h, 3 Day Curative, read-out: SEPTTR disease control, 3DC, HV activity) | pest or weed control at 100 ppm (Puccinia triticina; 24 h, 1 Day Protectant, read-out: PUCCRT disease control, 1DP, HV activity) | pest or weed control at 100 ppm (Puccinia triticina; 72 h, 3 Day Curative, read-out: PUCCRT disease control, 3DC, HV activity) |
| --- | --- | --- | --- | --- | --- | --- | --- | --- | --- | --- | --- | --- | --- | --- |
| CC[C@H](C)[C@H](NC(=O)c1nccc(OC)c1OC(C)=O)C(=O)O[C@@H](C)[C@H](c1ccc(F)cc1C)C(C)C [Compound 348] | < 80% | < 80% | > 80% | < 80% | > 80% | < 80% | – | – | – | – | – | – | – | – |
| COc1ccc([C@H](C(C)C)[C@H](C)OC(=O)[C@H](C)NC(=O)c2nccc(OC)c2OC(C)=O)cc1 [Compound 383] | – | – | – | – | > 80% | < 80% | < 80% | < 80% | > 80% | < 80% | – | – | – | – |
| COc1ccnc(C(=O)N[C@@H](C)C(=O)O[C@@H](C)[C@@H](c2ccccc2)C(C)C)c1OCOC(C)=O [Compound 162] | < 80% | > 80% | > 80% | > 80% | > 80% | < 80% | – | – | – | – | – | – | – | – |
| COc1ccnc(C(=O)N[C@@H](C)C(=O)O[C@@H](C)[C@@H](c2ccc(F)cc2C)C(C)C)c1OC(C)=O [Compound 178] | < 0% | < 80% | > 80% | < 80% | < 0% | < 80% | – | – | – | – | – | – | – | – |
| COc1cc[n+]([O-])c(C(=O)N[C@@H](C)C(=O)O[C@@H](C)[C@@H](c2ccc(C)cc2C)C2CCCC2)c1O [Compound 212] | < 0% | < 0% | < 80% | < 0% | < 80% | < 80% | – | – | – | – | < 80% | > 80% | > 80% | < 80% |
| CCC(C)[C@H](c1ccc(C)cc1C)[C@H](C)OC(=O)[C@H](C)NC(=O)c1c(O)c(OC)cc[n+]1[O-] (stereo partly shown) [Compound 213] | < 80% | < 80% | < 80% | < 0% | < 0% | < 0% | – | – | – | – | – | – | – | – |
| COc1ccnc(C(=O)N[C@@H](C)C(=O)O[C@@H](C)[C@H](c2ccccc2F)C(C)C)c1OC(C)=O [Compound 360] | < 80% | > 80% | > 80% | > 80% | > 80% | > 80% | – | – | – | – | – | – | – | – |
| COc1ccnc(C(=O)NCC(=O)O[C@@H](C)[C@H](c2ccc(F)cc2C)C(C)C)c1OC(C)=O [Compound 346] | < 80% | < 80% | > 80% | > 80% | > 80% | < 80% | – | – | – | – | – | – | – | – |
| COc1ccnc(C(=O)N[C@@H](C)C(=O)O[C@@H](C)[C@@H](c2ccc(C)cc2C)C2CCC2)c1OC(C)=O [Compound 241] | < 0% | > 80% | < 80% | < 80% | < 80% | < 80% | – | – | – | – | – | – | – | – |
| COc1cc(F)ccc1[C@@H](C1CCCC1)[C@H](C)OC(=O)[C@H](C)NC(=O)c1nccc(OC)c1OC(C)=O [Compound 224] | < 80% | < 0% | < 80% | < 80% | < 80% | < 0% | – | – | – | – | – | – | – | – |
| CCC(C)[C@H](c1ccc(C)cc1C)[C@H](C)OC(=O)[C@H](C)NC(=O)c1nccc(OC)c1OCOC(C)=O (stereo partly shown) [Compound 207] | < 80% | > 80% | > 80% | < 80% | > 80% | < 0% | – | – | – | – | – | – | – | – |
| CCC(C)[C@H](c1ccc(F)cc1OC)[C@H](C)OC(=O)[C@H](C)NC(=O)c1nccc(OC)c1OC(C)=O (stereo partly shown) [Compound 225] | > 80% | > 80% | > 80% | < 80% | > 80% | < 80% | – | – | – | – | – | – | – | – |

Source: patent US20180186742A1, “PICOLINAMIDES AS FUNGICIDES” (Dow AgroSciences LLC, priority 2017, published 2018)
